Among the data in ChEMBL document CHEMBL1154453, “Synthesis and aldose reductase inhibitory activity of some new chromonyl-2,4-thiazolidinediones” (Eur J Med Chem, 2008) are inhibition and IC50 values, retold here.

In assay [1] the target is Aldo-keto reductase family 1 member B1 (Rattus norvegicus) (UniProt P07943). Briefly: (§1) Inhibition of aldose reductase in Albino rat kidney assessed as decrease in NADPH concentration by spectrophotometrically.
The target of assay [2] is Aldo-keto reductase family 1 member B1 (Rattus norvegicus, UniProt P07943). The assay is described as §1.

For the molecule `CCOC(=O)CN1C(=O)S/C(=C/c2coc3c(C)cc(C)cc3c2=O)C1=O`, in assay [1], the inhibition was found to be 0%.

Take `O=C(O)CN1C(=O)S/C(=C/c2coc3ccc([N+](=O)[O-])cc3c2=O)C1=O`: the inhibition in assay [1] amounted to 82.4%. For the same molecule, the IC50 in assay [2] is 261 nM.

Take `O=C1NC(=O)/C(=C\c2coc3ccc([N+](=O)[O-])cc3c2=O)S1`: in assay [1], the inhibition worked out at 46.7%.

`CCOC(=O)CN1C(=O)S/C(=C/c2coc3ccc(C(C)C)cc3c2=O)C1=O`: the inhibition in assay [1] turned out to be 9.46%.

For `O=C1NC(=O)/C(=C\c2coc3ccccc3c2=O)S1`, the inhibition in assay [1] was determined as 42.4%.

`CC(C)c1ccc2occ(/C=C3/SC(=O)NC3=O)c(=O)c2c1`: the inhibition in assay [1] was 50.8%. Also, the IC50 in assay [2] is 955 nM.

As for `Cc1cc(C)c2occ(/C=C3/SC(=O)NC3=O)c(=O)c2c1`, the inhibition in assay [1] is 49.7%.

Take `Cc1ccc2occ(/C=C3/SC(=O)N(CC(=O)O)C3=O)c(=O)c2c1`: in assay [1], the inhibition came to 61.2%. In addition, the IC50 in assay [2] was determined as 805 nM.

Regarding `O=C(O)CN1C(=O)S/C(=C/c2coc3ccccc3c2=O)C1=O`, the inhibition in assay [1] turned out to be 49.4%.

Turning to `CC(C)c1ccc2occ(/C=C3/SC(=O)N(CC(=O)O)C3=O)c(=O)c2c1`, the inhibition in assay [1] came to 77.3%. For the same molecule, in assay [2], the IC50 was 522 nM.

For the molecule `Cc1ccc2occ(/C=C3/SC(=O)NC3=O)c(=O)c2c1`, in assay [1], the inhibition was found to be 52.7%. The IC50 in assay [2] is 944 nM.

As for `CCOC(=O)CN1C(=O)S/C(=C/c2coc3ccc(C)cc3c2=O)C1=O`, in assay [1], the inhibition worked out at 0%.

Take `CCOC(=O)CN1C(=O)S/C(=C/c2coc3ccccc3c2=O)C1=O`: in assay [1], the inhibition worked out at 8.18%.

`Cc1cc(C)c2occ(/C=C3/SC(=O)N(CC(=O)O)C3=O)c(=O)c2c1`: the inhibition in assay [1] was 68.6%. The 50% inhibitory concentration (IC50) in assay [2] came out at 678 nM.
